Reference: ChEMBL document CHEMBL5338746, “New Generation of sGC Stimulators: Discovery of Imidazo[1,2-a]pyridine Carboxamide BAY 1165747 (BAY-747), a Long-Acting Soluble Guanylate Cyclase Stimulator for the Treatment of Resistant Hypertension” (J Med Chem, 2023)
≈ marks a conversion by molar mass, not a printed value. Each block holds one compound with its values, some of them ahead of it. Calls of active or inactive are those of the source. The calls are words filed in the database; no cut-off is given here.

How the values were obtained:
[1] = target: Soluble guanylate cyclase alpha1/beta1 complex (Rattus norvegicus) (UniProt P19686+P20595); assay: Stimulation of recombinant rat sGC alpha1/beta1 expressed in CHO cells assessed as formation of cGMP from GTP by measuring concentration for >3-fold increase in the basal luminescence value by luminescence based analysis; format: cell-based; settings: filed as activator
[2] = Metabolic stability in rat hepatocytes assessed as clearance measured upto 90 mins by LC-MS/MS analysis; format: ADME, cell-based, Hepatocyte
Rattus norvegicus [3] = assay: Antihypertensive activity in spontaneous hypertensive Wistar rat assessed as decrease in systolic blood pressure at 0.003 mg/kg, iv administered as bolus injection measured for 21 days by tail-cuff method (reference value: -12 mmHg); format: functional; settings: time 21 day
Rattus norvegicus [4] = assay: Antihypertensive activity in spontaneous hypertensive Wistar rat model assessed as reduction in blood pressure at 0.3 to 3.0 mg/kg, po measured after 2 hrs by radiotelemetry analysis; format: functional; set-up: scale not given: the % may be the effect or the level left; settings: dose 0.3-3 mg/kg
Rattus norvegicus [5] = assay: Anti-hypertensive activity against L-NAME treated renin transgenic Wistar rat cardiovascular disease model assessed as reduction in plasma BNP level at 3 mg/kg administered once daily via oral gavage upto 21 days (reference value: 403+/-325 pg/ml); format: functional; settings: time <= 21 day
Rattus norvegicus [6] = assay: Antihypertensive activity in spontaneous hypertensive Wistar rat assessed as decrease in systolic blood pressure at 0.01 mg/kg, iv administered as bolus injection measured for 21 days by tail-cuff method (reference value: -12 mmHg); format: functional; settings: time 21 day
Rattus norvegicus [7] = assay: Anti-hypertensive activity against L-NAME treated renin transgenic Wistar rat cardiovascular disease model assessed as change in kidney to body weight at 0.3 mg/kg administered once daily via oral gavage upto 21 days (reference value: 3.79 +/- 0.1 g/kg); format: functional; settings: time <= 21 day
Rattus norvegicus [8] = assay: Anti-hypertensive activity against L-NAME treated renin transgenic Wistar rat cardiovascular disease model assessed as increase in plasma cGMP level at 0.3 mg/kg administered once daily via oral gavage upto 21 days (reference value: 572+/-350 pmol/mL); format: functional; settings: time <= 21 day
Rattus norvegicus [9] = assay: Antihypertensive activity against L-NAME treated renin transgenic Wistar rat cardiovascular disease model assessed as reduction in blood pressure at 3 mg/kg administered via oral gavage once daily for 28 days; format: functional, organism-based; settings: time 28.0 day
Rattus norvegicus [10] = assay: Anti-hypertensive activity against L-NAME treated renin transgenic Wistar rat cardiovascular disease model assessed as reduction in plasma BNP level at 0.3 mg/kg administered once daily via oral gavage upto 21 days (reference value: 403+/-325 pg/ml); format: functional; settings: time <= 21 day
Rattus norvegicus [11] = assay: Antihypertensive activity in spontaneous hypertensive Wistar rat assessed as decrease in systolic blood pressure at 0.3 mg/kg, iv administered as bolus injection measured for 21 days by tail-cuff method (reference value: -12 mmHg); format: functional; settings: time 21 day
Rattus norvegicus [12] = assay: Antihypertensive activity in spontaneous hypertensive Wistar rat model assessed as reduction in blood pressure po administered bolus injection by radiotelemetry analysis; format: functional, organism-based; settings: dose 0.3 mg/kg
Rattus norvegicus [13] = assay: Anti-hypertensive activity against L-NAME treated renin transgenic Wistar rat cardiovascular disease model assessed as change in heart to body weight at 0.3 mg/kg administered once daily via oral gavage upto 21 days (reference value: 4.64+/-0.3 g/Kg); format: functional; settings: time <= 21 day
Rattus norvegicus [14] = assay: Anti-hypertensive activity against L-NAME treated renin transgenic Wistar rat cardiovascular disease model assessed as increase in survival at 0.3 mg/kg administered once daily via oral gavage upto 21 days (reference value: 21%); format: functional; settings: time <= 21 day
Rattus norvegicus [15] = assay: Antihypertensive activity against L-NAME treated renin transgenic Wistar rat cardiovascular disease model assessed as reduction in blood pressure at 0.3 mg/kg administered via oral gavage once daily for 28 days; format: functional, organism-based; settings: time 28.0 day
Rattus norvegicus [16] = assay: Antihypertensive activity in spontaneous hypertensive Wistar rat assessed as decrease in systolic blood pressure at 0.1 mg/kg, iv administered as bolus injection measured for 21 days by tail-cuff method (reference value: -12 mmHg); format: functional; settings: time 21 day
Rattus norvegicus [17] = assay: Anti-hypertensive activity against L-NAME treated renin transgenic Wistar rat cardiovascular disease model assessed as increase in survival at 3 mg/kg administered once daily via oral gavage upto 21 days (reference value: 21%); format: functional; settings: time <= 21 day
Rattus norvegicus [18] = assay: Anti-hypertensive activity against L-NAME treated renin transgenic Wistar rat cardiovascular disease model assessed as change in kidney to body weight at 3 mg/kg administered once daily via oral gavage upto 21 days (reference value: 3.79 +/- 0.1 g/kg); format: functional; settings: time <= 21 day
Rattus norvegicus [19] = assay: Anti-hypertensive activity against L-NAME treated renin transgenic Wistar rat cardiovascular disease model assessed as increase in plasma cGMP level at 3 mg/kg administered once daily via oral gavage upto 21 days (reference value: 572+/-350 pmol/mL); format: functional; settings: time <= 21 day
Rattus norvegicus [20] = assay: Antihypertensive activity against L-NAME treated renin transgenic Wistar rat cardiovascular disease model assessed as reduction in mortality rate at 3 mg/kg administered via oral gavage once daily for 21 days; format: functional, organism-based; settings: time 21.0 day
Rattus norvegicus [21] = assay: Antihypertensive activity in spontaneous hypertensive Wistar rat model assessed as reduction in blood pressure at 1 mg/kg, po measured after 24 hrs by radiotelemetry analysis; format: functional, organism-based
Rattus norvegicus [22] = assay: Antihypertensive activity in spontaneous hypertensive Wistar rat model assessed as reduction in blood pressure at 0.3 mg/kg, po measured after 24 hrs by radiotelemetry analysis; format: functional, organism-based
Rattus norvegicus [23] = assay: Antihypertensive activity against L-NAME treated renin transgenic Wistar rat cardiovascular disease model assessed as reduction in mortality rate at 0.3 mg/kg administered via oral gavage once daily for 21 days; format: functional, organism-based; settings: time 21.0 day
Rattus norvegicus [24] = assay: Antihypertensive activity against L-NAME treated renin transgenic Wistar rat cardiovascular disease model assessed as body weight gain at 0.3 mg/kg administered via oral gavage once daily for 21 days; format: functional, organism-based; settings: time 21.0 day
Rattus norvegicus [25] = assay: Anti-hypertensive activity against L-NAME treated renin transgenic Wistar rat cardiovascular disease model assessed as change in heart to body weight at 3 mg/kg administered once daily via oral gavage upto 21 days (reference value: 4.64+/-0.3 g/Kg); format: functional; settings: time <= 21 day
Rattus norvegicus [26] = assay: Antihypertensive activity in spontaneous hypertensive Wistar rat assessed as decrease in systolic blood pressure at 0.03 mg/kg, iv administered as bolus injection measured for 21 days by tail-cuff method (reference value: -12 mmHg); format: functional; settings: time 21 day
Aorta = assay: Vasorelaxant activity in New Zealand White rabbits aortic rings assessed as reduction in phenylephrine-induced contraction measured after 30 mins; format: functional, tissue-based; settings: Oryctolagus cuniculus, 0.5 h
Rattus norvegicus [27] = assay: Antihypertensive activity in spontaneous hypertensive Wistar rat assessed as decrease in systolic blood pressure iv administered as bolus injection measured for 21 days by tail-cuff method; format: functional, organism-based; settings: dose 0.3-3 mg/kg, time 21.0 day
Rattus norvegicus [28] = assay: Antihypertensive activity against L-NAME treated renin transgenic Wistar rat cardiovascular disease model assessed as body weight gain at 3 mg/kg administered via oral gavage once daily for 21 days; format: functional, organism-based; settings: time 21.0 day
Rattus norvegicus [29] = assay: Antihypertensive activity in spontaneous hypertensive Wistar rat assessed as decrease in systolic blood pressure at 0.3 mg/kg, iv administered as bolus injection measured for 21 days by tail-cuff method; format: functional; settings: time 21 day
Rattus norvegicus [30] = assay: Hypotensive effect in conscious normotensive Wistar rat assessed as reduction in arterial blood pressure at 3 mg/kg, po administered for 21 days by tail-cuff method relative to control; format: functional; set-up: scale not given: the % may be the effect or the level left; settings: time 21 day
Rattus norvegicus [31] = assay: Antihypertensive activity in conscious normotensive Wistar rat model assessed as increase in heart rate at 3 mg/kg, po measured after 14 hrs by radiotelemetry; format: functional, organism-based
Rattus norvegicus [32] = assay: Hypotensive effect in conscious normotensive Wistar rat assessed as reduction in arterial blood pressure at 10 mg/kg, po administered for 21 days by tail-cuff method relative to control; format: functional; set-up: scale not given: the % may be the effect or the level left; settings: time 21 day
Rattus norvegicus [33] = assay: Antihypertensive activity in spontaneous hypertensive Wistar rat model assessed as reduction in blood pressure at 10 mg/kg, po measured after 12 hrs by radiotelemetry analysis; format: functional; set-up: scale not given: the % may be the effect or the level left
Rattus norvegicus [34] = assay: Antihypertensive activity in spontaneous hypertensive Wistar rat assessed as decrease in systolic blood pressure at 1 mg/kg, iv administered as bolus injection measured for 21 days by tail-cuff method; format: functional; settings: time 21 day
Rattus norvegicus [35] = assay: Antihypertensive activity in spontaneous hypertensive Wistar rat model assessed as reduction in blood pressure at 3 mg/kg, po measured after 12 hrs by radiotelemetry analysis; format: functional, organism-based
Rattus norvegicus [36] = assay: Hypotensive effect in conscious normotensive Wistar rat assessed as reduction in arterial blood pressure administered orally for 21 days by tail-cuff method; format: functional, organism-based; settings: dose 0.3-1 mg/kg, route po, time 21.0 day
Rattus norvegicus [37] = assay: Antihypertensive activity in conscious normotensive Wistar rat model assessed as increase in heart rate at 10 mg/kg, po measured after 14 hrs by radiotelemetry; format: functional, organism-based
Rattus norvegicus [38] = assay: Antihypertensive activity in spontaneous hypertensive Wistar rat assessed as decrease in systolic blood pressure at 3 mg/kg, iv administered as bolus injection measured for 21 days by tail-cuff method; format: functional; settings: time 21 day
[39] = Apparent permeability across apical to basolateral side in human Caco-2 cells incubated for 2 hrs by LC-MS/MS analysis; format: ADME, cell-based
[40] = Volume of distribution at steady state in Wistar rat at 0.3 mg/kg, iv administered as infusion by LC-MS/MS analysis; format: ADME, organism-based; settings: in vivo, read-out: Vdss
[41] = Half life in Wistar rat at 0.3 mg/kg, iv administered as infusion by LC-MS/MS analysis; format: ADME, organism-based; settings: in vivo
[42] = Blood clearance in Wistar rat at 0.3 mg/kg, iv administered as infusion incubated for 20 mins by HR LC-MS/MS analysis; format: ADME, organism-based; settings: whole blood
[43] = Oral bioavailability in Wistar rat at 1 mg/kg by LC-MS/MS analysis; format: ADME, organism-based; settings: in vivo
[44] = Solubility of compound in PBS at pH 6.5 measured for 24 hrs by LC-MS/MS analysis; format: physicochemical
[45] = Efflux ratio of apparent permeability basolateral to apical side over apical to basolateral side in human Caco-2 cells incubated for 2 hrs by LC-MS/MS analysis; format: ADME, cell-based
[46] = Fraction unbound in po or iv dosed Wistar rat; format: ADME, organism-based; settings: in vivo

SMILES: CCCC[C@H](CO)NC(=O)c1c(C)nc2c(OCc3cccc(F)c3F)cccn12
MEC [1]: 0.3 µM
CLhep predicted [2]: 25 mL/min/kg

SMILES: CCCC[C@H](CO)NC(=O)c1c(C)nc2c(OCc3c(C)cccc3C)cccn12
MEC [1]: 3 µM
CLhep predicted [2]: 43.3 mL/min/kg

SMILES: CCCC[C@H](CO)NC(=O)c1cnc2c(OCc3c(F)cccc3F)cccn12
MEC [1]: 0.3 µM
CLhep predicted [2]: 13.3 mL/min/kg

SMILES: CC[C@](C)(N)CNC(=O)c1c(C)nc2c(OCc3c(F)cccc3F)cc(C)cn12
Activity (Rattus norvegicus [3]): -19 mmHg
Activity (Rattus norvegicus [4]): 10%
Activity (Rattus norvegicus [5]): 97 pg/mL
Activity (Rattus norvegicus [6]): -22 mmHg
Activity (Rattus norvegicus [7]): 3.72 g/kg
Activity (Rattus norvegicus [8]): 1018 pmol/mL
Activity (Rattus norvegicus [9]): Active
Activity (Rattus norvegicus [10]): 284 pg/mL
Activity (Rattus norvegicus [11]): -86 mmHg
Activity (Rattus norvegicus [12]): Dose-Dependent Effect
Activity (Rattus norvegicus [13]): 4.03 g/kg
Activity (Rattus norvegicus [14]): 44%
Activity (Rattus norvegicus [15]): inactive
Activity (Rattus norvegicus [16]): -70 mmHg
Activity (Rattus norvegicus [17]): 78%
Activity (Rattus norvegicus [18]): 3.72 g/kg
Activity (Rattus norvegicus [19]): 2798 pmol/mL
Activity (Rattus norvegicus [20]): Active
Activity (Rattus norvegicus [21]): Active
Activity (Rattus norvegicus [22]): Active
Activity (Rattus norvegicus [23]): Active
Activity (Rattus norvegicus [24]): Active
Activity (Rattus norvegicus [25]): 3.64 g/kg
Activity (Rattus norvegicus [26]): -49 mmHg
IC50 (Aorta): 27 nM
Activity (Rattus norvegicus [27]): Dose-Dependent Effect
Activity (Rattus norvegicus [28]): Active
Activity (Rattus norvegicus [29]): -86 mmHg

SMILES: Cc1nc2c(OCc3c(F)cccc3F)cccn2c1C(=O)NC(CN)c1ccc(F)c(F)c1 (single isomer, unassigned; enantiomer B)
Activity (Rattus norvegicus [30]): 8%
Activity (Rattus norvegicus [12]): Dose-Dependent Effect
Activity (Rattus norvegicus [31]): Active
Activity (Rattus norvegicus [32]): 10%
Activity (Rattus norvegicus [33]): 20%
IC50 (Aorta): 625 nM
Activity (Rattus norvegicus [34]): -38 mmHg
Activity (Rattus norvegicus [27]): Dose-Dependent Effect
Activity (Rattus norvegicus [35]): Active
Activity (Rattus norvegicus [36]): Dose-Dependent Effect
Activity (Rattus norvegicus [37]): Active
Activity (Rattus norvegicus [29]): -12 mmHg
Activity (Rattus norvegicus [38]): -96 mmHg

SMILES: Cc1nc2c(OCC3CCC3)cccn2c1C(=O)NCCC1(O)CCCCC1
MEC [1]: 3 µM

Continued, values first:

Papp A→B at 2 h [39]: 41.3 ×10⁻⁶ cm/s
Vd [40]: 0.9 L/kg
half-life [41]: 48 min
clearance at […] [42]: 26.7 mL/min/kg
bioavailability [43]: 65%
solubility at 24 h [44]: 3 µg/mL (≈ 7.19 µM)
MEC [1]: 0.05 µM
efflux ratio at 2 h [45]: 0.6
fraction unbound [46]: 0.049
CLhep predicted [2]: 33.3 mL/min/kg
SMILES: CCCC[C@H](CO)NC(=O)c1c(C)nc2c(OCc3c(F)cccc3F)cccn12

MEC [1]: 0.1 µM
CLhep predicted [2]: 26.7 mL/min/kg
SMILES: CCCC[C@H](CO)NC(=O)c1c(C)nc2c(OCc3c(F)cc(F)cc3F)cccn12
